In patent KR20220113942A, “제조성 및 용출성이 우수한 소형 정제” (스미토모 파마 가부시키가이샤, priority 2019, dated 2021):

Assay: Test Example 2: evaluation of tabletability (capping on tableting)
Type: physicochemical
Settings: conclusion in words from Table 22

- compression moldability: 압축 성형성이 나빠서
- tendency to tableting failure (capping) as drug content ratio in the tablet rises (high drug content ratio in the tablet): 타정 장해(캐핑)가 발생하기 쉬움
Structure (SMILES): C[C@@H]1N=C(N)NC(N(C)C)=N1 [이메글리민, (6R)-N2,N2,6-트리메틸-3,6-디히드로-1,3,5-트리아진-2,4-디아민, 염산염]
